# Values of other authors in patent publication US20190011434A1, “METHODS TO DETERMINE CANCER TREATMENT USING ROBOTIC HIGH-THROUGHPUT DRUG SENSITIVITY TESTING” (AntiCancer, Inc., priority 2017, published 2019).
# Experiments:
# [1] = test system: head and neck squamous cell carcinoma (HNSCC) tumor specimens; conditions: 41 evaluated tumors; cisplatin 15 microg/mL or 5-fluorouracil 40 microg/mL; sensitivity = inhibition rate greater than 30%
# [2] = test system: primary tumor and axillary lymph node metastasis from breast cancer patients; conditions: 30 patients; cutoff drug concentrations; 7 days incubation; p<0.05
SMILES,Resistance in the HDRA (share of cases) [1],Chemosensitivity of lymph node metastases compared with primary tumor [2]
O=c1[nH]cc(F)c(=O)[nH]1 [5-fluorouracil],32%,more resistant than the primary tumor
"CO[C@@]12[C@H](COC(N)=O)C3=C(C(=O)C(C)=C(N)C3=O)N1C[C@@H]1N[C@@H]12 [MMC, mitomycin C]",–,more resistant than the primary tumor
"COc1cccc2c1C(=O)c1c(O)c3c(c(O)c1C2=O)C[C@@](O)(C(=O)CO)C[C@@H]3O[C@H]1C[C@H](N)[C@H](O)[C@H](C)O1 [DOX, doxorubicin]",–,more resistant than the primary tumor
N.N.[Cl][Pt][Cl] [cisplatinum],32%,not
